Ends that are not written are not given here. Peptide text beside a SMILES is read from it.

The subject of assay [1] is CD-1 male mice. Kind of assay: Footshock active avoidance training (FAAT) in T-maze, amnesia test in well-trained mice, post-training ICV injection. Type of assay: in vivo. The settings on record: for amnestic effect on retention of FAAT: 6.14 nmol of peptide per mouse (except dose-response curves), well-trained mice, retention tested one week later; for amnestic efficacy/potency compared with another peptide: dose-response curves / FIG. 19. The method, then: (§1) Test Animals. After 1 week in the laboratory, CD-1 male mice obtained from Charles River Breeding Laboratories were caged individually 24-28 hours prior to training and remained singly housed until retention was tested one week later. Animal rooms were on a 12 hour light/dark cycle with lights going on at the hour of 0600. Median body weight was 35 g, with a range of 33-38 g. Mice were assigned randomly to groups of 15 in the experiments reported in FIGS. 1-18 and groups of 10 for the dose-response curves (FIGS. 19 and 20) and were trained and tested between the hours of 0700 and 1500.
Peptides Tested. With the exception of Val Phe and Phe Val from Sigma, all peptides used in these studies were synthesized and analyzed to establish purity by standard methods at the Beckman Research Institute. Peptides were dissolved in: (1) saline; (2) 8% vol/vol dimethyl sulfoxide; (3) glacial acetic acid neutralized with […]; or (4) NaOH neutralized with HCl.
With exception of dose-response curves, the experiments reported below tested whether or not there was an amnestic effect at 6.14 nmol of peptide per mouse.
(§2) Apparatus, Training and Testing Procedures. The T-maze used for footshock active avoidance training (FAAT) consisted of a black plastic alley (46 cm long) with a start box at one end and two goal boxes (17.5 cm long) at the other. The start box was separated from the alley by a plastic guillotine door that prevented movement down the alley until training began. The alley was 12.5 cm deep and 9.8 cm wide. An electrifiable stainless steel rod floor ran throughout the maze.
(§3) Mice were not permitted to explore the maze before training. A block of training trials began when a mouse was placed in the start box. The guillotine door was raised and a muffled doorbell-type buzzer sounded simultaneously; footshock was 5 seconds later through a scrambled grid floor shocker (Colbourn Instruments, Model E13-08). The goal box first entered during the first set of trials was designated as "incorrect", and footshock was continued until the mouse entered the other goal box, which in all subsequent trials was designated "correct" for the particular mouse. At the end of each group of trials, the mouse was removed to its home cage.
As training proceeded, a mouse made one of two types of responses. A response latency longer than 5 seconds was classed as an escape from the footshock. A response latency less than or equal to 5 seconds was considered an avoidance, since the mouse avoided receiving a footshock. Two exclusion criteria were applied to reduce learning variability among mice, as follows. On the first training trials, mice with escape latencies greater than 20 seconds were discarded. Mice not having at least one errorless escape latency between 1.5 and 3.5 seconds on training trials 3 or 4 were excluded. […] Mice received five such training trials. One week after training and post-trial administration of vehicle alone or vehicle containing test substance, T-maze training was resumed until each mouse made five avoidance responses in six consecutive training trials (trials to criterion). The recall score was taken to be the percentage of tested mice remembering original training.
In these instances, training was performed under conditions that tend to maximize learning (sound intensity, 65 decibels; footshock current, 0.35 mA; intertrial interval, 45 seconds).

For assay [2], the system named is CD-1 male mice. Kind of assay: FAAT in T-maze, memory-enhancement test in weakly trained mice (poor retention in vehicle controls), post-training ICV injection. The note with it: for Lowest Concentration For Significant Memory Enhancement: Table 1. The format is in vivo. The protocol:
as §1
Peptides Tested. With the exception of Val Phe and Phe Val from Sigma, all peptides used in these studies were synthesized and analyzed to establish purity by standard methods at the Beckman Research Institute. Peptides were dissolved in: (1) saline; (2) 8% vol/vol dimethyl sulfoxide; (3) glacial acetic acid neutralized with […]; or (4) NaOH neutralized with HCl. […] Analysis of variance showing insignificant differences among the latter, the value for the most frequently employed (No. 2 above) was used for comparison with groups receiving test peptides.
as §2, §3
As training proceeded, a mouse made one of two types of responses. A response latency longer than 5 seconds was classed as an escape from the footshock. A response latency less than or equal to 5 seconds was considered an avoidance, since the mouse avoided receiving a footshock. Two exclusion criteria were applied to reduce learning variability among mice, as follows. On the first training trials, mice with escape latencies greater than 20 seconds were discarded. Mice not having at least one errorless escape latency between 1.5 and 3.5 seconds on training trials 3 or 4 were excluded. The total exclusions were fewer than 15%. Mice received five such training trials. One week after training and post-trial administration of vehicle alone or vehicle containing test substance, T-maze training was resumed until each mouse made five avoidance responses in six consecutive training trials (trials to criterion). The recall score was taken to be the percentage of tested mice remembering original training.
Well-trained animals (recall score approximately 80%) were used to determine whether or not administered substances could cause amnesia. In these instances, training was performed under conditions that tend to maximize learning (sound intensity, 65 decibels; footshock current, 0.35 mA; intertrial interval, 45 seconds). In the cases in which it was desired to detect whether or not there was an enhancing effect on memory, training conditions were adjusted so that the initial recall score in vehicle controls was only approximately 20% (sound intensity, 55 decibels; footshock current, 0.30 mA; intertrial interval, 30 seconds). […]

Assay [3] has as its system CD-1 male mice. The note with it: cited from earlier work; for amnestic effect on retention of FAAT (earlier publications): post-training ICV, references 1 and 12.
The subject of assay [4] is hippocampal neurons in culture. The settings on record: reference 17; cited from earlier work.
For assay [5] the following is noted: references 13-16; cited from earlier work.

Turning to `NC(=O)CC[C@H](N)C(=O)N[C@@H](Cc1ccccc1)C(=O)N[C@@H](Cc1ccccc1)C(=O)NCC(=O)O` [Gln Phe Phe Gly] (H-QFFG-OH), in the assay on CD-1 male mice [1] (post-training ICV), the “amnestic effect on retention of FAAT” value was “amnestic”. Moreover, the “dose at which statistically significant memory enhancement found” value in the assay on CD-1 male mice [2] (weakly trained animals) was 10^-14 moles/mouse. Besides, in the assay with CD-1 male mice [2] (weakly trained mice), the “memory-enhancing potency compared with other peptides” value is “by far the most potent” and the “Lowest Concentration For Significant Memory Enhancement” value was 6 × 10^-14 Moles/Mouse.

As for `N[C@@H](Cc1ccccc1)C(=O)N[C@@H](Cc1ccccc1)C(=O)O` [Phe Phe] (H-Phe-Phe-OH), the “amnestic effect on retention of FAAT” value in the assay on CD-1 male mice [1] (post-training ICV) was “amnestically ineffective”. Further, in the assay on CD-1 male mice [1] (post-training ICV, 6.14 nmol per mouse, vehicle 6.80±0.21), the “mean trials to criterion ±SEM” value worked out at 7.0±0.42.

`CC(C)[C@H](N)C(=O)N[C@@H](Cc1ccccc1)C(=O)N[C@@H](Cc1ccccc1)C(=O)O` [Val Phe Phe] (H-Val-Phe-Phe-OH): the “amnestic efficacy/potency compared with another peptide” value with CD-1 male mice [1] (ICV) is “not significantly different from that of the β-A4 homologue [Gln^11 ]β-(1-28)”. Besides, in the assay with CD-1 male mice [1] (ICV, well-trained animals), the “dose at which amnesia first noted” value is 3×10^-9 moles/mouse. Moreover, the “amnestic effect on retention of FAAT” value in the assay with CD-1 male mice [1] (post-training ICV) is “amnestic”. Moreover, in the assay on CD-1 male mice [2] (weakly trained animals), the “dose at which statistically significant memory enhancement found” value is recorded as 1.9×10^-11 moles/mouse and the memory-enhancing effect result is “memory enhancer”. Also, the “Lowest Concentration For Significant Memory Enhancement” value in the assay with CD-1 male mice [2] (weakly trained mice) is listed as 1.9 × 10^-11 Moles/Mouse.

Turning to `CC(C)[C@H](N)C(=O)N[C@@H](Cc1ccccc1)C(=O)N[C@H](C(=O)O)[C@@H](C)O` [Val Phe Thr] (H-Val-Phe-Thr-OH), the “amnestic effect on retention of FAAT” value in the assay with CD-1 male mice [1] (post-training ICV) is on record as “amnestic”.

In the case of “His Ser Asp Ala Val Phe Thr Asp Asn Tyr Thr Arg Leu Lys Gln Met Ala Val Lys Lys Tyr Leu Asn Ser Ile Leu Asn-NH2 (HSDAVFTDNYTRLKQMAVKKYLNSILN-NH2) [VIP]”, the “amnestic effect on retention of FAAT (earlier publications)” value in the assay on CD-1 male mice [3] is listed as “amnestic”.

As for KLVFFAE [Lys Leu Val Phe Phe Ala Glu], the “amnestic effect on retention of FAAT” value in the assay on CD-1 male mice [1] (post-training ICV) is on record as “not amnestic”.

With “Pro Arg Pro Gly Pro Gln Gln Phe Phe Gly Leu Met-NH2 (PRPGPQQFFGLM-NH2) [Substance Pro]”, in assay [4], the “effect on trophic and toxic effects of β-A4 on hippocampal neurons” value is “counteract trophic and toxic effects of B-A4 on hippocampal neurons in culture”. Besides, the “memory retention (literature)” value in assay [5] is recorded as “enhance memory retention”.

In the case of VFFAE [Val Phe Phe Ala Glu], the “amnestic efficacy/potency compared with another peptide” value with CD-1 male mice [1] (ICV) is given as “lesser potency of Val Phe Phe Ala Glu than that of Val Phe Phe”. Besides, the “amnestic effect on retention of FAAT” value in the assay with CD-1 male mice [1] (post-training ICV) is listed as “amnestic”.

Take VFFAEDVGSNK [β-(18-28)]: the “amnestic effect on retention of FAAT (earlier publications)” value with CD-1 male mice [3] was “amnestic”.

On to “β-(1-18): β-A4 fragment as printed in b47; probably the β-(1-28) homologue of reference 1 (DAEFRHDSGYEVHHQKLV; Amyloid-beta protein 42; UniProt P05067 672-689, looked up, fragment)”, for which the “dose at which active (amnestic)” value in the assay on CD-1 male mice [3] (ICV, reference 1) is 1.5 nmol per mouse.

(Values after patent publication US5652334A, “Method for design of substances that enhance memory and improve the quality of life” (City of Hope, priority 1993, dated 1997).)
